# From US20060095978A1, “Screening assay” (priority 2002, published 2006)
# Experiments:
# Assay type in all cases: in vivo, mouse
# [1] = tested on: IFN-γ; experiment: Serum IFN-γ in OVA/OVA323-339 stimulated DO11.10 mice (ELISA); conditions: for IFN-γ level in pg/ml serum on day 0 after 0 hours: 0 hours (before injection); for increase of INF-γ serum concentration: 90 μg per mouse
# Procedure: Groups of six, 8-10 weeks old, male or female DO11.10 mice weighing between 20-22 g are obtained as described in Murphy K. M. et al. 1990, Science 250:1720-1722. The animals are maintained in Microvent positive air supply cages (22±1° C., 55±5% relative humidity, 50-70 changes of fresh air/hour and 12 hours day and night cycle) with sawdust bedding. Standard laboratory mouse chow (SNIFF, Soest, Germany) and drinking water is given ad libidum. The animals are used for the study after an adaptation period of 10-14 days and grouped (6 per group) in type II Macrolon cages one day before the experiment.
# Groups of six DO11.10 mice are i.p. injected with 10 μg of ovalbumin (OVA, Sigma, St. Louis, USA) absorbed to 2 mg of Al(OH)3 (Alu Gel S; 2% Al(OH)3, Serva, Heidelberg, FRG) and diluted with saline to a volume of 0.2 ml or various amounts (1, 3, 10, 30, or 90 μg per mouse) of alum-precipitated OVA323-339 peptide (98% purity, piChem R&D, Graz Austria) in 0.2 ml on days 0 and 14. Before and at different time points on days 0 and 14 after the OVA or OVA323-339 peptide administration about 200 μl of blood are collected by puncture of the retro-orbital plexus under ether anesthesia.
# The sera are collected and stored frozen at −20° C. until analyzed. […]
# Murine IL-2, IFN-γ and IL-4 are analyzed by immunoassays (Quantikine R&D Systems, Minneapolis, Minn., USA). Results are expressed as pg per ml serum expressed as mean±SEM pg of the cytokine indicated per ml serum. Test and control groups are evaluated by Dunn test by Kruskall-Wallis One Way Anova using the SigmaStat® program. […]
# Mice of the control group are injected with alum. Blood is collected before and at 2, 4, and 6 hours after the first peptide injection. INF-γ is determined in the sera by an ELISA. Results are expressed as mean pg per ml serum±SEM. […]
# [2] = tested on: IL-1β; experiment: Serum IL-1β in DO11.10 mice primed with OVA-peptide and challenged with LPS
# Procedure: (§1) Animals are provided as described in Example 2a).
# (§2) b) Administration of OVA323-339 (=OVA-peptide) and LPS Groups of six DO11.10 mice receive i.p. 30 μg of OVA323-339 peptide (98% purity, pi Chem R&D, Graz Austria) in 0.2 ml 0.9% saline per mouse. Control mice are injected i.p. with the same amount of saline.
# (§3) 18 hours later the mice are challenged i.p. with 100, 300 or 500 μg LPS (E. coli 0111: B4 Sigma Vienna, Austria). At 2, 4 and 6 hours after the LPS administration about 200 μl of blood are collected by puncture of the retro-orbital plexus under ether anesthesia. The sera are collected and stored frozen at −20° until analyzed.
# (§4) Murine IL-1α, IL-1β and TNF-α serum levels are determined by ELISAs (IL-1α and TNF-α, Bender MedSystems, Vienna Austria; IL-1β, Quantikine R&D Systems, Minneapolis, Minn.). Results are expressed as pg per ml serum. Differences in the serum cytokines concentrations between the different experimental groups are examined for statistical significance by the Mann-Whitney U test, two tailed. Results are expressed as the mean±SEM. p<0.05 is regarded as significant.
# Values of serum IL-1β responses in control DO11.10 mice challenged with various doses of LPS (=NaCl+LPS) and in mice primed with the OVA-peptide 18 hours prior to the LPS challenge (=OVA+LPS) are given in TABLE 7. The serum IL-1β levels are expressed as mean pg per ml serum±SEM.
# [3] = tested on: IL-1α; experiment: Serum IL-1α in DO11.10 mice primed with OVA-peptide and challenged with LPS; conditions: challenged with the highest LPS dose
# Procedure: as §1, §2, §3, §4
# The injection of OVA-peptide at doses between 3 and 90 μg per mouse increases serum concentrations of IFN-γ as well as other cytokines, such as IL-4 and IL-2, in a dose/amount-dependent way. […] The serum IL-1α levels are expressed as mean pg per ml serum±SEM.
substance,measurement,setting,value
"OVA323-339: peptide derived from chicken ovalbumin containing amino acids from position 323 to 339 (KISQAVHAAHAEINEAG; UniProt P01012 323-339, looked up, fragment)",IFN-γ level in pg/ml serum on day 0 after 0 hours,[1]; 1 μg OVA323-339 i.p.,11.181 ± 1.288 pg/mL
same,IFN-γ level in pg/ml serum on day 0 after 2 hours,[1]; 1 μg OVA323-339 i.p.,18.047 ± 3.944 pg/mL
same,IFN-γ level in pg/ml serum on day 0 after 4 hours,[1]; 1 μg OVA323-339 i.p.,41.034 ± 12.394 pg/mL
same,IFN-γ level in pg/ml serum on day 0 after 6 hours,[1]; 1 μg OVA323-339 i.p.,15.925 ± 4.594 pg/mL
same,IFN-γ level in pg/ml serum on day 0 after 0 hours,[1]; 3 μg OVA323-339 i.p.,8.230 ± 1.430 pg/mL
same,IFN-γ level in pg/ml serum on day 0 after 2 hours,[1]; 3 μg OVA323-339 i.p.,62.724 ± 7.939 pg/mL
same,IFN-γ level in pg/ml serum on day 0 after 4 hours,[1]; 3 μg OVA323-339 i.p.,63.023 ± 12.462 pg/mL
same,IFN-γ level in pg/ml serum on day 0 after 6 hours,[1]; 3 μg OVA323-339 i.p.,25.962 ± 8.858 pg/mL
same,increase of serum INF-γ levels compared to alum control,"[1]; 3 μg, at 2 and 4 hours",about 11 fold
same,IFN-γ level in pg/ml serum on day 0 after 0 hours,[1]; 10 μg OVA323-339 i.p.,0.374 ± 0.324 pg/mL
same,IFN-γ level in pg/ml serum on day 0 after 2 hours,[1]; 10 μg OVA323-339 i.p.,65.927 ± 23.147 pg/mL
same,IFN-γ level in pg/ml serum on day 0 after 4 hours,[1]; 10 μg OVA323-339 i.p.,202.260 ± 48.410 pg/mL
same,IFN-γ level in pg/ml serum on day 0 after 6 hours,[1]; 10 μg OVA323-339 i.p.,24.047 ± 9.455 pg/mL
same,rise in INF-γ serum levels compared to alum alone,[1]; 10 μg OVA323-339 peptide 2 weeks after 10 μg OVA,~25 fold
same,IFN-γ level in pg/ml serum on day 0 after 0 hours,[1]; 30 μg OVA323-339 i.p.,3.988 ± 0.700 pg/mL
same,IFN-γ level in pg/ml serum on day 0 after 2 hours,[1]; 30 μg OVA323-339 i.p.,207.727 ± 62.093 pg/mL
same,IFN-γ level in pg/ml serum on day 0 after 4 hours,[1]; 30 μg OVA323-339 i.p.,176.807 ± 79.268 pg/mL
same,IFN-γ level in pg/ml serum on day 0 after 6 hours,[1]; 30 μg OVA323-339 i.p.,187.325 ± 62.370 pg/mL
same,increase of serum IFN-γ levels,"[1]; 30 μg per mouse, at 2, 4 and 6 hours",32-38 fold
same,IFN-γ level in pg/ml serum on day 0 after 2 hours,[1]; 90 μg OVA323-339 i.p.,407.899 ± 106.513 pg/mL
same,IFN-γ level in pg/ml serum on day 0 after 4 hours,[1]; 90 μg OVA323-339 i.p.,413.925 ± 65.247 pg/mL
same,IFN-γ level in pg/ml serum on day 0 after 6 hours,[1]; 90 μg OVA323-339 i.p.,514.918 ± 72.758 pg/mL
same,increase of INF-γ serum concentration,[1]; at 2 and 4 hours,75 fold
same,increase of INF-γ serum concentration,[1]; at 6 hours,94 fold
same,increase of serum IFN-γ levels,"[1]; 10 g (printed) of peptide, at 4 hours",about 40 fold
same,increase in IFN-γ levels in sera,"[1]; first injection of 10 μg peptide, 3 hours after",50 fold
same,change in serum INF-γ levels,"[1]; primary stimulation, 1 μg per mouse, only at 4 hours",small increase
same,rise of INF-γ levels after second sensitization,"[1]; second sensitization, same dose (10 μg) of peptide",same magnitude
same,IL-1β in OVA-peptide primed versus unprimed mice,"[2]; 100 μg LPS, 2 hours",1.6 fold
same,IL-1β in OVA-peptide primed versus unprimed mice,"[2]; 100 μg LPS, 4 hours",1.7 fold
same,IL-1β in OVA-peptide primed versus unprimed mice,"[2]; 100 μg LPS, 6 hours",7.8 fold
same,IL-1β in OVA-peptide primed versus unprimed mice,"[2]; 300 μg LPS, 2 hours",1.9 fold
same,IL-1β in OVA-peptide primed versus unprimed mice,"[2]; 300 μg LPS, 4 hours",2.7 fold
same,IL-1β in OVA-peptide primed versus unprimed mice,"[2]; 300 μg LPS, 6 hours",3.0 fold
same,IL-1β in OVA-peptide primed versus unprimed mice,"[2]; 500 μg LPS, 2 hours",3.5 fold
same,IL-1β in OVA-peptide primed versus unprimed mice,"[2]; 500 μg LPS, 4 hours",2.2 fold
same,IL-1β in OVA-peptide primed versus unprimed mice,"[2]; 500 μg LPS, 6 hours",5.7 fold
same,effect of OVA-peptide priming on IL-1α serum levels,[3],rapid increase
